Experimental findings from patent US10851112B2, “Anti-HCMV virus compound” (MEDSHINE DISCOVERY INC., priority 2016, dated 2020) are described below.

The experiment has as its system US3-6-EGFP-HCMV-AD169 viruses. Put plainly: Fluorescence decay assay against human cytomegalovirus. Format: cell-based, human cytomegalovirus (HCMV). Particulars: Human betaherpesvirus 5, AD169, MRC5, 240 h. The protocol:
Fluorescence Decay Assay Against Human Cytomegalovirus
The antiviral activity of the compound against human cytomegalovirus (HCMV) was evaluated by determining the half maximal effective concentration (EC50) of the compound. The HCMV used in this assay was inserted with enhanced green fluorescent protein (EGFP) by gene recombination, so the viral replication in cells could be reflected by the expression level of GFP. The inhibitory activity of the compound on HCMV GFP expression was evaluated by determining the fluorescence intensity in the wells of different concentrations of the compound using a high content cell analysis platform Acumen eX3.
Fluorescence Decay Assay Against HCMV
MRC5 cells were inoculated into a black 96-well cell culture plate at a density of 20,000 cells per well. The plate was incubated overnight in a 37° C., 5% CO2 incubator. US3-6-EGFP-HCMV-AD169 viruses were added to the cell culture well at a certain MOI (0.003-0.1) and the plate was incubated for 3 hours in a 37° C., 5% CO2 incubator. After adsorption of viruses, the medium containing viruses was aspirated and 200 μL of cell culture medium containing different concentrations of the compound (4-fold dilution, 6 test concentrations) was added. The final concentration of DMSO in the medium was 1%. Virus control wells (with DMSO added, but no compound was added) and inhibition control wells (with a high concentration of control compound added) were set. The cell plate was incubated for 10 days in a 37° C., 5% CO2 incubator and the liquid was renewed on the 4th day and 7th day. After 10 days of culture, the fluorescence intensity was determined using a high content cell analysis platform Acumen eX3 (TTP LabTech). The original data was used for calculating the antiviral activity of the compound.
The inhibition % was imported into GraphPad Prism software for data processing to give a corresponding dose-response curve for the compound and the EC50 of the test compound was obtained.

In the case of `COc1cccc(N2CCN(C3=Nc4c(csc4F)[C@@H](CC(=O)O)N3c3cc(C(F)(F)F)ccc3OC)CC2)c1` (single isomer, unassigned) [WX-075], the EC50 was 295 nM.
The result for `COc1cccc(N2CCN(C3=Nc4c(csc4F)[C@H](CC(=O)O)N3c3cc(C(F)(F)F)ccc3OC)CC2)c1` (single isomer, unassigned) [WX-076] reads 1 nM; that for `COc1cccc(N2CCN(C3=Nc4ccsc4[C@@H](CC(=O)O)N3c3cc(C(F)(F)F)ccc3OC)CC2)c1` (single isomer, unassigned) [WX-087], > 1000 nM.
As for `COc1ccc(C(F)(F)F)cc1N1C(N2CCC(F)(c3ccc(F)cc3)CC2)=Nc2ccsc2[C@H]1CC(=O)O` (single isomer, unassigned) [WX-089], the figure is > 1000 nM; as for `COc1ccc(C(F)(F)F)cc1N1C(N2CCC(F)(c3ccc(F)cc3)CC2)=Nc2ccsc2[C@@H]1CC(=O)O` (single isomer, unassigned) [WX-090], 79 nM.
The result for `COc1cc(N2CCN(C3=Nc4c(csc4F)[C@H](CC(=O)O)N3c3cc(C(F)(F)F)ccc3OC)CC2)ccn1` (single isomer, unassigned) [WX-097] reads 1 nM; that for `COc1cc(N2CCN(C3=Nc4c(csc4F)[C@@H](CC(=O)O)N3c3cc(C(F)(F)F)ccc3OC)CC2)ccn1` (single isomer, unassigned) [WX-098], 31 nM.
As for `COc1ccc(C(F)(F)F)cc1N1C(N2CCC(F)(c3ccc(F)cc3)CC2)=Nc2c(csc2F)[C@@H]1CC(=O)O` (single isomer, unassigned) [WX-099], the EC50 is 24 nM.
The result for `COc1ccc(C(F)(F)F)cc1N1C(N2CCC(F)(c3ccc(F)cc3)CC2)=Nc2c(csc2F)[C@H]1CC(=O)O` (single isomer, unassigned) [WX-100] reads 73 nM; that for `COc1cccc(N2CCN(C3=Nc4cc(Cl)sc4[C@@H](CC(=O)O)N3c3cc(C(F)(F)F)ccc3OC)CC2)c1` (single isomer, unassigned) [WX-106], > 1000 nM.
The result for `COc1cccc(N2CCN(C3=Nc4cc(Cl)sc4[C@H](CC(=O)O)N3c3cc(C(F)(F)F)ccc3OC)CC2)c1` (single isomer, unassigned) [WX-107] reads 4 nM; that for `COc1cc(N2CCN(C3=Nc4ccsc4[C@@H](CC(=O)O)N3c3cc(C(F)(F)F)ccc3OC)CC2)ccn1` (single isomer, unassigned) [WX-108], 340 nM.
In the case of `COc1ccc(C(F)(F)F)cc1N1C(N2CCN(c3ccc(F)cc3)CC2)=Nc2c(csc2F)[C@@H]1CC(=O)O` (single isomer, unassigned) [WX-112], the EC50 came out at 1 nM.
As for `COc1ccc(C(F)(F)F)cc1N1C(N2CCN(c3ccc(F)cc3)CC2)=Nc2c(csc2F)[C@H]1CC(=O)O` (single isomer, unassigned) [WX-113], the figure is 107 nM; as for `COc1ccnc(N2CCN(C3=Nc4c(csc4F)[C@H](CC(=O)O)N3c3cc(C(F)(F)F)ccc3OC)C[C@H]2C)n1` (single isomer, unassigned) [WX-129], 14 nM; as for `COc1ccnc(N2CCN(C3=Nc4c(csc4F)[C@@H](CC(=O)O)N3c3cc(C(F)(F)F)ccc3OC)C[C@H]2C)n1` (single isomer, unassigned) [WX-130], > 100 nM.
As for `COc1cccc(N2CCN(C3=Nc4c(csc4F)[C@@H](CC(=O)O)N3c3cc(C(F)(F)F)ccc3OC)C[C@H]2C)c1` (single isomer, unassigned) [WX-131], the figure is 55 nM; as for `COc1cncc(N2CCN(C3=Nc4c(csc4F)[C@H](CC(=O)O)N3c3cc(C(F)(F)F)ccc3OC)C[C@H]2C)c1` (single isomer, unassigned) [WX-133], 17 nM; as for `COc1cncc(N2CCN(C3=Nc4c(csc4F)[C@@H](CC(=O)O)N3c3cc(C(F)(F)F)ccc3OC)C[C@H]2C)c1` (single isomer, unassigned) [WX-134], > 1000 nM.
Consider `COc1cccc(N2CCN(C3=Nc4ccsc4[C@@H](CC(=O)O)N3c3cc(C(F)(F)F)ccc3OC)C[C@H]2C)c1` (single isomer, unassigned) [WX-135], for which the EC50 is 941 nM.
